In patent publication US7968535B2, “Use of azapaullones for preventing and treating pancreatic autoimmune disorders” (Develogen Atkiengesellschaft, priority 2005, dated 2011):

Legend:
[1] = system: INS-1E cells; experiment: Caspase activity assay in glucose/palmitate stressed cells; format: cell-based, rat; settings: 2.5 μM
Procedure: (§1) The effects of the substance on cell viability, cell growth and specific apoptotic events such as caspases activity and DNA-fragmentation was monitored. INS-1E cell apoptosis was induced by treatment of cell cultures with toxic concentrations of glucose and palmitate for 24 hours. The substance of interest was added to the medium 1 hour prior to the addition of the toxic agents.
Caspase activation is a characteristic of early apoptotic cells. The experiment was carried out as described above with the exception that the caspases activity assay was applied instead of the DNA-fragmentation assay (see Example 3 for details).
(§2) 10,000 Ins-1E cells were seeded per 96-well (black 96-well tissue culture plates, Falcon #353948) in 100 μl culture medium (RPMI 1640 containing 11 mM glucose, 5% FCS, 10 mM HEPES, 50 μM 2-mercaptoethanol, 1 mM MEM sodium pyruvate, 100 U/ml penicillin, 100 μg/ml streptomycin) and cultivated at 37° C., 5% CO2 in humidified atmosphere for 3 days. Media was changed to 100 μl starvation medium (culture medium with only 5 mM glucose, 1% FCS) and the cells were re-incubated for 1 day. Then media was exchanged to starvation medium containing test substances.
(§3) Apoptosis of Ins-1E cells was induced by addition of a combination of BSA coupled palmitate and glucose (pal/gluc) or a combination of cytokines (cyt) 1 hour after starting the treatment with test substances: pal/gluc: 0.3 mM palmitate:BSA (palmitic acid sodium salt:fatty acid free BSA 6:1) and 25 mM glucose. 10×cyt: 0.04 ng/ml IL-1β and 1 ng/ml IFNγ. The cells were further incubated with test substances and apoptotic inducer for 24 hours.
Caspase activity is a characteristic of early apoptotic cells. Their activity was quantified by an enzymatic assay (homogeneous caspases assay, Roche, cat. No. 03 005 372 001). Caspase activity was measured 3 hours after addition of caspases substrate according to the manufacturers guidelines.

[2] = system: INS-1E cells; experiment: Glucolipotoxicity induced apoptosis of INS-1E cells (overall assessment); format: cell-based, rat; settings: palmitate and glucose, 24 hours
Procedure: as §1
The effects of the test compounds on beta cell function were assessed using biological assays monitoring cellular metabolic activity as well as specific apoptotic events in Ins-1E cells.
as §2, §3

[3] = system: INS-1E cells; experiment: DNA-fragmentation ELISA in glucose/palmitate stressed cells; format: cell-based, rat; settings: 2.5 μM, glucose/palmitate 24 hours
Procedure: as §1
DNA-fragmentation is a comparatively late apoptotic event comprising storage of nucleosomal DNA-fragments as mono- and oligo nucleosomes in the cytoplasm. The incubation of INS1-E cells with high concentrations of glucose and palmitate for 24 hours leads to DNA breakdown and the accumulation of nucleosomal DNA fragments in the cytoplasm. The detectable amount of cytosolic nucleosomal DNA fragments was reduced by about 17%, when cells were treated with the apoptosis inducing agents in combination with 10 μM 4-AKP.
as §2, §3
DNA-fragmentation is a late apoptotic event comprising storage of nucleosomal DNA-fragments as mono- and oligo nucleosomes in the cytoplasm. Their concentration was determined by ELISA (Cell death detection ELISA, Roche, cat. No. 1774425) according to the manufacturers guidelines.

[4] = system: Pax4 gene; experiment: Pax4 transcription by quantitative real time RT-PCR; format: cell-based, rat
Procedure: FIG. 11 illustrates a representative experiment in which the relative Pax4 levels were quantified using quantitative real time RT-PCR. […] Data are presented as relative levels to the basal Pax4 expression level in INS-1E cells only treated with the vehicle (Co.). Activin-A (1 nM) treated INS-1E cells serve as a positive control.
The response of the Pax4 gene to test compounds was investigated in the rat insulinoma cell line INS-1E. INS-1E cells are known to express Pax4 and to upregulate Pax4 levels in response to the treatment with activin-A and betacellulin. In the search for novel beta cell mitogens and/or beta cell protective agents the inventors treated INS-1E cells with test compound 10c. Compound 10c induces the relative Pax4 expression about 5-fold compared to the control and compared to 1 nM activin A (FIG. 11).
INS-1E cells were cultured as described (Merglen, (2004) Endocrinology; 145: 667-678). Cells were seeded at a density of 2×10^4 cells per cm^2 6 to 8 days before the treatment with chemicals. During the growth period the medium was changed once. […]
Total RNA from 8×10^4 cells growing on 4 cm^2 surface area of a tissue culture dish was extracted using Qiagen RNAeasy kit according to the instructions of the manufacturer (Qiagen) and 2 μg was converted into cDNA. […] Quantitative real-time PCR was performed using Applied Biosystems SDS 7000 detection system. […]

[5] = system: primary rat beta cells; experiment: Replication of primary rat beta cells (Ki67/C-peptide immunofluorescence); format: cell-based; settings: islets treated for 72 hours
Procedure: Cells expressing the proliferation marker Ki67 as well as C-peptide were considered to be replicating beta cells. The percentage of replicating beta cells in islets not exposed to compound 10c (Co.) and islet treated for 72 hours with the indicated amounts of compound 10c was determined by immunofluorescence microscopy.
Isolated rat islets were cultured for 72 hours in the presence of compound 10c before the islets were disaggregated and dispersed on microscope slides. Replicating beta cells were identified by immunohistological staining of dispersed islets with antibodies against C-peptide, a proteolytic fragment of proinsulin, and the cell division marker Ki-67.
Islets of Langerhans are isolated by standard Liberase digestion method from rat pancreata (Liberase™ Cl enzyme blend BMB Cat. #1814-435, ROCHE).
Freshly isolated islets are cultured in vitro with or without the addition of the factor of interest for 48 h. Following the culture period the islets are dispersed gently by titration in Ca^2+ and Mg^2+ free PBS. […]
An Olympus microscope equipped with an automatic image acquisition device (Olympus) is used for counting of C-peptide positive beta cells. Proliferating C-peptide/Ki-67 double positive beta cells are counted manually. Thereby the fraction of proliferating beta cells can be determined.

[6] = system: panel of 28 protein kinases; experiment: KinaseProfiler biochemical kinase activity assays; settings: tested in parallel with 1-Azakenpaullone
Procedure: Experiments were carried out by Upstate Ltd. according to the protocols described in KinaseProfiler™ Assay Protocols Fall 2004 by Ustate Cell Signaling solutions.
Compounds 10c and e are structurally very similar to 1-Azakenpaullone and differ only by one substituent at position 9 of the D ring from their template 1-Azakenpaullone. […] These kinases were selected among about 250 different kinases based on their structural or functional similarity to GSK3, e.g. all available members of the CDK family were included in the survey because CDKs are most similar to GSK3 and several kinase inhibitors are known that inhibit members of both families. The direct comparison of different compounds in such an experiment provides information on the relative selectivity of the respective compounds.

Question: How did the “reduction of caspase activity” value [1] turn out when `N#Cc1ccc2[nH]c3c(c2c1)CC(=O)Nc1cccnc1-3` [Compound 10c, 6-Oxo-5,6,7,12-tetrahydropyrido[3′,2′:2,3]azepino[4,5-b]indole-9-carbonitrile] was run?
Answer: 77%

Question: What about the “effect on glucolipotoxicity induced apoptosis” value [2] of the same molecule?
Answer: strongly antagonizes glucolipotoxicity induced apoptosis

Question: What about the “reduction of cytosolic DNA-fragments” value [3] of the same molecule?
Answer: 74%

Question: What about the Pax4 gene transcription ([4]; 2 μM) of the same molecule?
Answer: transiently induce Pax4 gene transcription

Question: What about the “relative Pax4 expression compared to the control” value ([4]; INS-1E cells, vehicle control) of the same molecule?
Answer: about 5 fold

Question: And the “replication of primary rat beta cells in culture” value [5]?
Answer: stimulates the replication

Question: What about the “kinase selectivity / activity profile” value [6] of the same molecule?
Answer: selective kinase inhibitors
